Source: patent publication EP4813381A1, “PHARMACEUTICAL USE OF GUAIANE SESQUITERPENE DERIVATIVE” (Nanjing University Of Chinese Medicine, priority 2023, dated 2025)

Assays:
[1] = Conversion rate of salt-form prodrugs to parent compound in HEPES buffer solution; assay type: physicochemical; details: conversion to Compound 1, HEPES buffer pH 7.4, 37 °C
Description: Adjust the pH to 7.4 using 0.5 M NaOH, then dilute to a final volume 100 mL with distilled water.
(§1) Sample Analysis: Dissolve 0.6 mg of the compound in 250 µl of deionized water separately. Add 250 µl of mouse serum or HEPES 7.4 solution to the sample, incubate at a constant temperature of 37 °C, and collect samples at different time points. Pipette 20 µl of the sample to an EP tube, add 60 µl of methanol, vortex to mix thoroughly, and centrifuge at 12,000 rpm at 4 °C for 10 min. At 1 h, 2 h, 4 h, 8 h, and 12 h respectively, collect the supernatant for HPLC analysis. Inject 10 µL of sample and record the corresponding peak areas.

[2] = Conversion rate of salt-form prodrugs to parent compound in mouse plasma; assay type: in vitro ADME; details: conversion to Compound 1, mouse plasma, 37 °C
Description: Pharmaceutically acceptable salts of guaiane-type sesquiterpene lactone derivatives were selected and evaluated for their conversion rates to Compound 1 and Compound 83 in plasma and HEPES buffer, with results shown in Tables 2-1, 2-2, 3-1, and 3-2.
Plasma Preparation: Collect mouse plasma into an EP tube pre-loaded with sodium heparin, centrifuge at 8000 rpm for 10 minutes at 4°C, and then collect the supernatant.
as §1, with “areas. Chromatographic conditions: Hanbang C18 column (4.6 × 250 mm, 5 µm); mobile phase: acetonitrile: […] ammonium formate solution = 60:40; flow rate 1.0 mL/min; detection wavelength 210 nm; column temperature 30 °C. [drawing 171] Table 2-1. Conversion Rate of Compounds 20-42 to Compound 1 at Different Time Points in HEPES Buffer Solution” for “areas.”

`CC(C)N(C[C@@H]1C(=O)O[C@H]2[C@H]1CC[C@@]1(C)C[C@]13CC[C@@](C)(O)[C@H]23)C(C)C` [compound 31] gave a Release rate ([1]; 1 h) of 6.7%, a Release rate ([1]; 2 h) of 14.0% and a Release rate ([1]; 4 h) of 23.0%. The Release rate ([1]; 8 h) was 41.2%, the Release rate ([1]; 12 h) was 49.5% and the Release rate ([2]; 1 h) was 6.5%. For the same molecule, the Release rate ([2]; 2 h) was 13.9%, the Release rate ([2]; 4 h) was 24.4% and the Release rate ([2]; 8 h) was 40.2%. The Release rate ([2]; 12 h) was 48.5%.

For `C[C@@]12CC[C@@H]3[C@H](OC(=O)[C@H]3CN3CC4CCCC4C3)[C@@H]3[C@]1(CC[C@@]3(C)O)C2` (stereo partly drawn) [compound 32], the Release rate ([1]; 1 h) was 6.9%, the Release rate ([1]; 2 h) was 15.4% and the Release rate ([1]; 4 h) was 26.2%. For the same molecule, the Release rate ([1]; 8 h) was 42.2%, the Release rate ([1]; 12 h) was 51.2% and the Release rate ([2]; 1 h) was 6.3%. It also gave a Release rate ([2]; 2 h) of 14.4%, a Release rate ([2]; 4 h) of 25.2% and a Release rate ([2]; 8 h) of 43.2%. It also gave a Release rate ([2]; 12 h) of 51.4%.

`C[C@@]12CC[C@@H]3[C@H](OC(=O)[C@H]3CN3CCC3)[C@@H]3[C@]1(CC[C@@]3(C)O)C2` [compound 33] showed a Release rate ([1]; 1 h) of 6.9%, a Release rate ([1]; 2 h) of 15.8% and a Release rate ([1]; 4 h) of 26.0%. For the same molecule, the Release rate ([1]; 8 h) was 41.8%, the Release rate ([1]; 12 h) was 51.1% and the Release rate ([2]; 1 h) was 6.9%. The Release rate ([2]; 2 h) was 14.8%, the Release rate ([2]; 4 h) was 26.0% and the Release rate ([2]; 8 h) was 42.8%. It also gave a Release rate ([2]; 12 h) of 50.7%.

With `C[C@@]12CC[C@@H]3[C@H](OC(=O)[C@H]3CN3CCC4(CCCC4)CC3)[C@@H]3[C@]1(CC[C@@]3(C)O)C2` [compound 34] the Release rate ([1]; 1 h) was 7.0%, the Release rate ([1]; 2 h) was 16.2% and the Release rate ([1]; 4 h) was 27.6%. The Release rate ([1]; 8 h) was 43.6%, the Release rate ([1]; 12 h) was 54.4% and the Release rate ([2]; 1 h) was 7.8%. The Release rate ([2]; 2 h) was 17.2%, the Release rate ([2]; 4 h) was 28.6% and the Release rate ([2]; 8 h) was 47.6%. For the same molecule, the Release rate ([2]; 12 h) was 58.8%.

In the case of `C[C@@]12CC[C@@H]3[C@H](OC(=O)[C@H]3CN3CCC(N4CCCCC4)CC3)[C@@H]3[C@]1(CC[C@@]3(C)O)C2` [compound 35], the Release rate ([1]; 1 h) was 6.8%, the Release rate ([1]; 2 h) was 14.6% and the Release rate ([1]; 4 h) was 26.4%. The Release rate ([1]; 8 h) was 43.8%, the Release rate ([1]; 12 h) was 52.5% and the Release rate ([2]; 1 h) was 6.8%. The Release rate ([2]; 2 h) was 13.6%, the Release rate ([2]; 4 h) was 26.4% and the Release rate ([2]; 8 h) was 44.8%. It also gave a Release rate ([2]; 12 h) of 52.5%.

`C[C@@]12CC[C@@H]3[C@H](OC(=O)[C@H]3CN3CCC(N4CCOCC4)CC3)[C@@H]3[C@]1(CC[C@@]3(C)O)C2` [compound 36] gave a Release rate ([1]; 1 h) of 6.9%, a Release rate ([1]; 2 h) of 14.8% and a Release rate ([1]; 4 h) of 26.0%. It also gave a Release rate ([1]; 8 h) of 43.6%, a Release rate ([1]; 12 h) of 52.4% and a Release rate ([2]; 1 h) of 6.6%. For the same molecule, the Release rate ([2]; 2 h) was 14.8%, the Release rate ([2]; 4 h) was 26.0% and the Release rate ([2]; 8 h) was 43.6%. The Release rate ([2]; 12 h) was 52.1%.

With `C[C@@]12CC[C@@H]3[C@H](OC(=O)[C@H]3CN3CCC4(CC3)CC4)[C@@H]3[C@]1(CC[C@@]3(C)O)C2` [compound 37] the Release rate ([1]; 1 h) was 7.2%, the Release rate ([1]; 2 h) was 16.8% and the Release rate ([1]; 4 h) was 28.3%. For the same molecule, the Release rate ([1]; 8 h) was 44.1%, the Release rate ([1]; 12 h) was 65.8% and the Release rate ([2]; 1 h) was 8.2%. For the same molecule, the Release rate ([2]; 2 h) was 17.8%, the Release rate ([2]; 4 h) was 29.3% and the Release rate ([2]; 8 h) was 48.1%. The Release rate ([2]; 12 h) was 67.8%.

For `C[C@@]12CC[C@@H]3[C@H](OC(=O)[C@H]3CN3CCCCCCC3)[C@@H]3[C@]1(CC[C@@]3(C)O)C2` [compound 38], the Release rate ([1]; 1 h) was 6.9%, the Release rate ([1]; 2 h) was 14.8% and the Release rate ([1]; 4 h) was 25.4%. It also gave a Release rate ([1]; 8 h) of 41.4%, a Release rate ([1]; 12 h) of 50.7% and a Release rate ([2]; 1 h) of 6.1%. For the same molecule, the Release rate ([2]; 2 h) was 14.5%, the Release rate ([2]; 4 h) was 25.4% and the Release rate ([2]; 8 h) was 41.4%. For the same molecule, the Release rate ([2]; 12 h) was 49.7%.

In the case of `CN(C)C[C@@H]1C(=O)O[C@H]2[C@H]1CC[C@@]1(C)C[C@]13CC[C@@](C)(O)[C@H]23` [compound 39], the Release rate ([1]; 1 h) was 6.6%, the Release rate ([1]; 2 h) was 15.0% and the Release rate ([1]; 8 h) was 42.7%. It also gave a Release rate ([1]; 12 h) of 54.3%, a Release rate ([2]; 1 h) of 6.6% and a Release rate ([2]; 2 h) of 14.0%. For the same molecule, the Release rate ([2]; 8 h) was 43.6% and the Release rate ([2]; 12 h) was 52.8%.

In the case of `CN(C)C[C@@H]1C(=O)O[C@H]2[C@H]1CC[C@@]1(C)C[C@]13CC[C@@](C)(O)[C@H]23` [compound 40], the Release rate ([1]; 1 h) was 6.8%, the Release rate ([1]; 2 h) was 14.6% and the Release rate ([1]; 8 h) was 44.0%. It also gave a Release rate ([1]; 12 h) of 50.2%, a Release rate ([2]; 1 h) of 6.7% and a Release rate ([2]; 2 h) of 14.2%. For the same molecule, the Release rate ([2]; 8 h) was 44.0% and the Release rate ([2]; 12 h) was 52.6%.
